{"source": "patent US11369594B2", "about": "“Cytotoxic actin-targeting compounds” (priority 2017, dated 2022)", "key": {"[1]": {"tested_on": "HER2 cancer cells SKOV3 (ovarian) and HCC1954 (breast)", "assay": "Growth suppression of HER2 cancer cells (cell confluence change, live cell imaging)", "format": "cell-based", "conditions": "analogs 25 μM, Lapatinib 25 μM as comparator", "description": "Growth suppression of HER2 cancer cells by select Myc B analogs was studied to determine rate of growth of HER2 cancer cells (SKOV3 (ovarian) and HCC1954 (breast)) as measured using a live cell imaging system. Findings are shown in FIGS. 9A and 9B, SKOV3 Ovarian cancer and HCC1954 Breast cancer cells were incubated with DMSO (1%), Myc B (25 nM), or the indicated analogs (25 μM), or with HER2 inhibitor Lapatinib (25 μM) in DMEM supplemented with 2% FBS and PI (1 μM) using an IncuCyte Zoom Live Cell Analysis System for 48 hours. Graphs depict the percent change in confluence at 48 hours compared to time zero (significant differences from DMSO *p<0.05, **p<0.01, ***p<0.001)."}, "SKOV3 (ovarian) cells": {"tested_on": "SKOV3 (ovarian) cells", "assay": "IncuCyte PI uptake assay of cytotoxicity", "format": "cell-based", "conditions": "48 hours of treatment, compared to DMSO control", "description": "The cytotoxicity of analogs was determined by using a PI uptake assay. HCC1954, SKBR3 or SKOV3 cells (2,000) were seeded in a 96-well plate. Treatments were prepared in 2% FBS containing media with 1 μM PI, and imaged using the IncuCyte Zoom Live Cell Analysis System equipped with a 10× objective. Phase contrast and fluorescent images were acquired every 2-3 hours for 48 hours. Several parameters are available upon analysis utilizing the IncuCyte Zoom Analysis tools including number of PI positive cells and cell confluence. See FIG. 8 for plots of SKOV3 cell analog cytotoxicity and HCC1954 cell analog cytotoxicity for specified treatments.\nCytotoxicity effects of Myc B and analogs in HER2 cancer cells was studied. Specifically, SKOV3 (ovarian) and HCC1954 (breast) cells were incubated with DMSO (1%) or analog (12.5-50 μM) in DMEM supplemented with 2% FBS and PI (1 μM) using an IncuCyte Zoom Live Cell Analysis System for 48 hours. As shown in FIGS. 10A-Q, graphs depict the number of PI positive for SKOV3 cells (left) and HCC1954 cells (right) over 48 hours of treatment with DMSO or indicated analog (12.5-50 μM)."}, "[2]": {"tested_on": "F-actin in SKOV3 cells expressing LifeAct-GFP", "assay": "Live cell confocal imaging of LifeAct-GFP reporter (F-actin disruption)", "format": "cell-based", "conditions": "0-2 hours", "description": "To visualize effects of analogs on cellular F-actin dynamics, several cancer cell lines were transduced with a lentivirus expressing a green fluorescent protein (GFP) fusion with LifeAct, a 17 amino-acid protein containing the actin-binding domain of a yeast protein. To produce this lentivirus, 500,000 HEK293T cells were seeded on a 6-well plate coated with 0.01 mg/ml of poly-lysine solution. 24 hours later viral packing plasmids Pax2 (1 ug) and MD2G (0.5 ug) were mixed in serum free media with 1 ug of pLenti.PGK.LifeAct-GFP.W (Addgene Catalogue No. 51010), and 10 uL of Xtreme-Gene (Roche, Germany) were then added to the master mix. The mix was vortexed and incubated at room temperature for 15 minutes before being added in a drop-wise manner to HEK293T cells. After 24 hours, HCC1954, SKBR3 or SKOV3 cells were seeded in a 6-well plate and incubated at 37° C. for 24 hours. The virus-containing media from the HEK293T cells media was collected and filtered (0.45 μm). HCC1954, SKBR3 or SKOV3 cells were incubated with 0.5 mL virus-containing media, and incubated at 37° C. for 2-3 days. Efficiency of transduction was determined by visualizing GFP positive cells using fluorescence microscopy. […]\nDisruption of filamentous actin (F-actin) in HER2 cancer cells was measured using live cell confocal imaging of LifeAct-GFP reporter. […]"}, "F-actin in SKOV3 cells": {"tested_on": "F-actin in SKOV3 cells", "assay": "F-actin staining (TRITC-Phalloidin) fluorescence micrographs", "format": "cell-based", "conditions": "2 or 20 hours", "description": "Referring to FIG. 12, representative fluorescence micrographs are shown of SKOV3 cells treated with DMSO (1%), Myc B (25 nM), or indicated analog (10 μM) for 2 or 20 hours prior to staining of F-actin (TRITC-Phalloidin). the effects of Myc B analog treatments over 20 hours are compared with DMSO and Myc B in HER2 cancer cells. […] As described in Example 37, disruption of filamentous actin (F-actin) in HER2 cancer cells was measured using live cell confocal imaging of LifeAct-GFP reporter. The LifeAct-GFP signal in DMSO control conditions indicates the localization of F-actin structures in SKOV3 cells. […] Compounds described herein can be used to treat such actin-related problems because of their efficacy in disrupting actin, as shown by studies described in the Examples and Figures herein."}, "[3]": {"tested_on": "HER2+ SKOV3 subcutaneous tumor xenograft", "assay": "SKOV3 subcutaneous tumor xenograft study", "format": "in vivo, Rag2−/−:IL2Rγc−/− mice", "description": "Referring to FIGS. 3A and 3B, a proof-of-principle study of the anticancer effects of MycB in a SKOV3 tumor xenograft model. […] Following the detection of palpable tumors, mice were randomized between vehicle control (DMSO), MycB (100 ng, intratumoral), TZ (50 μg, intraperitoneal), or both MycB and TZ (same doses/delivery) twice weekly until endpoint was reached (n=6/group; significant differences between treatment groups based on ANOVA are indicated by *P<0.05, **** P<0.0001).\nThe anti-tumor effects of MycB analogs are also expected to extend to other cancer types with selection of appropriate antibodies for these tumor types with novel ADC formulations."}, "[4]": {"tested_on": "SKBR3, MDA-MB-453 and SKOV3 cells", "assay": "Cell viability, Trypan blue exclusion assay", "format": "cell-based", "conditions": "multiple cancer cell lines", "description": "Referring to FIG. 1A-C, the cytotoxicity of MycB on HER2+ breast and ovarian cancer cells was measured. Specifically, data is provided regarding the percentage of viable cells following treatment with MycB at 0-200 nM concentrations for 48 hours using SKBR3, MDA-MB-453 and SKOV3 cells. Cell viability was determined using Trypan blue exclusion assay (both unstained and stained cells were counted on a hemocytometer; values are mean±SEM of triplicate experiments)."}, "[5]": {"tested_on": "HER2+ cell migration and invasion (SKOV3 cells)", "assay": "Cell migration and invasion assays (IncuCyte scratch wound, spheroid reattachment)", "format": "cell-based", "conditions": "sub-lethal doses (low nM)", "description": "Effects of analogs on cellular motility including invasion and migration were evaluated using the IncuCyte Live Cell System. 25,000 SKOV3 cells were plated on a 96-well ImageLock coated with 10 μg/ml of human fibronectin. Once the cells reached approximately 90% confluence a scratch/wound is induced using the IncuCyte Woundmaker (a 96-pin would making tool). The cells were then rinsed with sterile PBS then media, with or without treatment was added. To evaluate invasion 5% Matrigel was added. The plate was then inserted into the IncuCyte Zoom Live Cell Analysis System and imaged at 10× magnification every 2-3 hours following until wound closure or 48 hours.\nThe percentage of wound confluence, for migration, or would density, for invasion, was determined through the IncuCyte ZOOM Scratch Wound Analysis tool adjusted to cell line dependent processing definitions. See FIGS. 5 to 6 for images and graphical results.\nA three-dimensional (3D) spheroid reattachment assay was performed to further evaluate analog effects on migration and invasion. A round bottom 96-well was coated with polyhydroxyehylmethacrylate (poly-hema) to create a non-adhesive conditions upon which cancer cells can form a 3D spheroid. […]\nThe percentage of migration/invasion was calculated using ImageJ (NIH) by measuring the area of migration or invasion and subtracting the intial size of the spheroid. […]"}}, "note": "“Also recorded” adds a separate entry of the source.", "data": [{"compound": "CCCO[C@H](CC)C[C@H](OC)[C@@H](C)CC[C@@H](OC(=O)C(C)C)[C@H](C)[C@H](OC)[C@H](C)/C=C/N(C)C=O", "note": "[4f]", "values": [{"measurement": "Growth suppression: percent change in confluence at 48 hours compared to time zero", "setting": "[1]", "value": "potent analog was seen in 4f (2534), with comparable effects of the HER2 inhibitor Lapatinib"}, {"measurement": "Cytotoxicity: number of PI positive cells (PI uptake)", "setting": "SKOV3 (ovarian) cells", "value": "significant cytoxicity response"}, {"measurement": "F-actin structures (LifeAct-GFP signal)", "setting": "[2]; analogs 10 μM", "value": "limited effects at early time points"}]}, {"compound": "CCC(=O)O[C@H](CC)C[C@H](OC)[C@@H](C)CC[C@@H](OC(=O)C(C)C)[C@H](C)[C@H](OC)[C@H](C)/C=C/N(C)C=O", "note": "[4g]", "values": [{"measurement": "Localization of endogenous F-actin (TRITC-Phalloidin)", "setting": "F-actin in SKOV3 cells; analogs 10 μM", "value": "most highly disruptive of F-actin"}]}, {"compound": "CCC(=O)O[C@H](CC)C[C@H](OC)[C@@H](C)CC[C@@H](OC(=O)[C@@H](C)OC)[C@H](C)[C@H](OC)[C@H](C)/C=C/N(C)C=O", "note": "[4h]", "values": [{"measurement": "Localization of endogenous F-actin (TRITC-Phalloidin)", "setting": "F-actin in SKOV3 cells; analogs 10 μM", "value": "most highly disruptive of F-actin"}]}, {"compound": "COC[C@@H](OC)C(=O)O[C@H](CC[C@H](C)[C@@H](C[C@@H]1OC(=O)C[C@@H](O)C/C=C/C(=O)[C@H](C)[C@H](OC)c2coc(n2)-c2coc(n2)-c2coc(n2)/C=C/C[C@H](OC)[C@H]1C)OC)[C@H](C)[C@H](OC(C)=O)[C@H](C)/C=C/N(C)C=O", "note": "[MycB, Mycalolide B]", "values": [{"measurement": "Cytotoxicity: number of PI positive cells (PI uptake)", "setting": "SKOV3 (ovarian) cells", "value": "significant increase in PI uptake"}, {"measurement": "Growth of SKOV3 tumors (tumor volume and mass)", "setting": "[3]; MycB 100 ng intratumoral in combination with TZ 50 μg intraperitoneal, twice weekly", "value": "reduced growth of SKOV3 tumors; also recorded: potential improvement when combined with TZ (Herceptin) on limiting tumor growth and metastasis"}, {"measurement": "Growth of SKOV3 tumors (tumor volume and mass)", "setting": "[3]; MycB alone, 100 ng intratumoral twice weekly", "value": "reduced growth of SKOV3 tumors; also recorded: anti-tumor effects of MycB on tumor volume and mass were demonstrated"}, {"measurement": "F-actin structures (LifeAct-GFP signal)", "setting": "[2]; Myc B 25 nM", "value": "time-dependent collapse of F-actin into large aggregates near the cell periphery"}, {"measurement": "Cytotoxicity in cancer cell lines", "setting": "[4]", "value": "cytotoxicity in multiple cancer cell lines"}, {"measurement": "Localization of endogenous F-actin (TRITC-Phalloidin)", "setting": "F-actin in SKOV3 cells; Myc B 25 nM", "value": "disruption of F-actin at the cell periphery and collapse into large aggregates in the cytoplasm of the cells"}, {"measurement": "Inhibition of cell motility and invasiveness", "setting": "[5]", "value": "significant inhibition of cell motility and invasiveness"}]}]}
